Entries after “also recorded” stand apart in the source; their conditions may differ. Square brackets hold non-standard residues; d marks the D form. Peptide text beside a SMILES is read from it. Cya = N[CH](CS(=O)(=O)O)C(=O)O
Experiments:
Type in all cases: in vivo
New Zealand Rabbits [1] = experiment: Ocular toxicity of intravitreal Compound 1 with and without urea (Table A); details: 24 hour follow up
Rabbits = tested on: Rabbits
Method: In this example, the PVD-Inducing Effects of RGD Peptides and Glycyl-Arginyl-Glycyl-Cysteic-Threonyl-Proline-COOH (RG Cysteic Acid Peptide; GRG Cysteic Acid TP; Compound 1) (SEQ ID NO: 2) were compared in rabbits. The protocol for this study was as follows:
Animal Model • a) 20 Male and Female Rabbits • b) Weighing approximately 1.5-2.5 kg. • c) Divide into 2 groups
i) 10 Rabbits were injected intravitreally with 2.5% RGD solution at pH=6.5 • a) 10 Right Eye injected with 2.5% RGD solution • b) 5 Left Eye used as BSS Control • c) 5 Left Eyes injected with 2.5% RGD+0.02% EDTA at pH=6.5
ii) 10 Rabbits were injected intravitreally with 2.5% RGCysteic solution at pH=6.5 • a) 10 Right Eye injected with 2.5% RGCysteic solution at pH=6.5 • b) 10 Left Eye injected with 2.5% RGCysteic solution+0.02% EDTA at pH=6.5
Active Chemicals • d) Sodium EDTA—99.0-100.5% from Spectrum Chemical Corp. • e) RG Cysteic Acid—cGMP supplier (Purity>98%). • f) RGD—cGMP supplier (Purity>98%). • g) BSS solution
Both the RG Cysteic Acid, RGD, RG Cysteic Acid+Sodium EDTA, RGD+Sodium EDTA, and the BSS solutions were injected into the vitreous cavity 24 hours prior to surgery. The rabbits ([…]) were anesthetized with an intramuscular injection of 2.0 ml of 1:1 combination of xylazine (100 mg/ml) and Ketamine hydrochloride (100 mg/ml). Pupils are dilated with topical cyclopentolate hydrochloride 1% and Phenylephrine hydrochloride 10%.
All animals were initially examined with slit lamp biomicroscopy and indirect ophthalmoscopy to exclude any animals with pre-existing vitreoretinal abnormalities. The intravitreal injection of 0.10 cc was administered 2 mm posterior to the limbus in the supranasal quadrant using a 30-gauge needle attached to a 1.0 cc syringe. Care must be taken to avoid damage to the lens or retina.
Twenty four hours following injection and immediately before initiation of a mechanical vitrectomy, a B-scan ultrasonography was performed to determine the status of the posterior vitreous and also the liquefaction of the vitreous. A two-port pars plana vitrectomy was performed using an infusion fiberoptic and a vitreous cutter attached to a vitrectomy unit. Following a 30 second core vitrectomy, the vitreous cutter was directed to the peripapillary retinal surface where, using low aspiration (<30 mmHg) a separation of the posterior cortical vitreous from the retinal surface was attempted in 4 quadrants. The sclerotomies were sutured and a postoperative B-Scan ultrasonography was carried out to determine the presence and extent of any PVD present in each quadrant. The animals were euthanized with intracardiac sodium pentobarbital injections, and the eyes were immediately enucleated.
; • Grade 0. a) No detachment of the posterior Vitreous is observed. • b) Vitreous Liquefaction • Grade 1. a) Consists of eyes in which the vitreous is detached in 2 or less quadrants. • b) Vitreous Liquefaction • Grade 2. a) Consists of eyes in which the vitreous is detached in 3 or more quadrants, but with remaining focal attachments along the medullary rays • b) Vitreous Liquefaction • Grade 3. a) Consists of eyes in which the vitreous is totally detached from the retinal surface • b) Vitreous Liquefaction
Care was taken to avoid damage to the adjacent retina and lens. The eyes were immersed in 2% paraformaldehyde plus 2.5% glutaraldehyde for a minimum of 24 hours at 4 degrees Celsius. A unique posterior calotte was removed, dehydrated in methanol, and dried in carbon dioxide to the critical point, sputter-coated in gold and photographed using the scanning electron microscope.

[2] = tested on: ischemic retinopathy mouse model; experiment: ROP / ischemic retinopathy mouse model, pre-retinal neovascularization
Method: In this Example, Compound 1 was tested in an ischemic retinopathy mouse model to explore the feasibility of suppressing pre-retinal neovascularization.
Mice that had ischemic retinopathy were injected intravitreously with a single dose of Compound 1 at the concentration of 0.125 μg/1 μL, 12.5 μg/1 μL, 25.0 μg/1 μL and at 50.0 μg/1 μL (Groups B, D, F and H, respectively), as well as a vehicle (BSS) (Controls 1, 2, 3 and 4) on post-natal day 12. On post-natal day 17, 5 days after intravitreal injection, the area of neovascularization was measured by image analysis. FIG. 9 is a bar graph comparing the measured area of neovascularization in mice treated with these varying doces of compound 1 or control (vehicle only).

New Zealand Rabbits [3] = experiment: Ocular toxicity of subconjunctival Compound 1 (Table C); details: single subconjunctival 5.0 mg/100 μL, 48 hour follow up
CNV mouse model = experiment: Suppression of laser-induced choroidal neovascularization, CNV mouse model; details: 14 days after laser; for size of CNV lesions: vs vehicle
Method: In this example, Compound 1 was tested to determine whether it CNV in a published mouse model. See, Umeda N, Kachi S, Akiyama H, Zahn G, Vossmeyer D, Stragies R, Campochiaro P., Suppression and Regression of Choroidal Neovascularization by Systemic Administration of an α5β1 Integrin Antagonist: Molecular Pharmacology:2006, 69, 1820-1828.
The study mice had laser-induced rupture of Bruch's membrane followed by an intravitreal injection of a single dose of COMPOUND 1 at the concentration of 1.0 μg/1 μL, 25 μg/1 μL and at 50 μg/1 μL, as well as a vehicle immediately after laser treatment. Fourteen days after laser treatment, the area of CNV was measured by image analysis. […] FIG. 8 is a graph showing total area of neovascularization in a CNV mouse model 14 days after treatment with various doses of Compound 1 and control (vehicle only).

[4] = single intravitreal 2.5 mg/100 μL
[5] = single intravitreal injection, 8 eyes per group
[6] = Table B, single intravitreal 2.5 mg/100 μL, 24 hour follow up
[7] = Table B, single intravitreal 2.5 mg/100 μL, 24 hour follow up, share of eyes

Compound: CC(O)C(NC(=O)C(CS(=O)(=O)O)NC(=O)CNC(=O)C(CCCNC(=N)N)NC(=O)CN)C(=O)N1CCCC1C(=O)O (stereo not shown) [Compound 1, Glycinyl-Arginyl-Glycinyl-Cysteic-Threonyl-Proline-COOH] (H-GRG[Cya]TP-OH; configuration not given here)
- Ocular toxicity: RPE toxicity (New Zealand Rabbits [1]; [4]): No RPE toxicity
- Ocular toxicity: cataract formation (New Zealand Rabbits [1]; [4]): No cataract
- Ocular toxicity: exudates (New Zealand Rabbits [1]; [4]): No exudates
- Ocular toxicity: inflammation (New Zealand Rabbits [1]; [4]): No inflammation
- Ocular toxicity: retinal hemorrhage (New Zealand Rabbits [1]; [4]): No retinal
- Ocular toxicity: retinal tears, breaks or detachments (New Zealand Rabbits [1]; [4]): No retinal tears,
- Ocular toxicity: retinal vascular compromise (New Zealand Rabbits [1]; [4]): No retinal
- Total PVD (New Zealand Rabbits [1]; [5]): 75% Total PVD
- Vitreous liquefaction (New Zealand Rabbits [1]; [5]): Complete
- PVD grade (postoperative B-scan) (Rabbits; 2.5% intravitreal 0.10 cc, OD treated eye, 24 hours after injection, one value per animal, listed as RG Cysteic Acid): Grade 3 -; also recorded: Grade 2 - (Consists of eyes in which the vitreous is detached in 3 or more quadrants, but with remaining focal attachments along the medullary rays); also recorded: Grade 1 - (Consists of eyes in which the vitreous is detached in 2 or less quadrants.)
- liquefaction of the vitreous (Rabbits; 2.5% intravitreally, 24 hours): completely liquefied
- separation of the vitreous from the retina (Rabbits; 2.5% intravitreally, in 24 hours): complete separation of the vitreous from the retina
- Ocular toxicity: RPE toxicity (Rabbits; [6]): No RPE toxicity
- Ocular toxicity: cataract formation (Rabbits; [6]): No cataract formation
- Ocular toxicity: exudates (Rabbits; [6]): No exudates
- Ocular toxicity: inflammation (Rabbits; [6]): No inflammation
- Ocular toxicity: retinal hemorrhage (Rabbits; [6]): No retinal hemorrhage
- Ocular toxicity: retinal tears, breaks or detachments (Rabbits; [6]): No retinal tears, breaks
- Ocular toxicity: retinal vascular compromise (Rabbits; [6]): No retinal vascular
- Complete Liquefaction (Rabbits; [7]): PVD - 80% Complete
- Total PVD (Rabbits; [7]): Group 1: - 60% Total
- activity in inducing complete PVD and liquefying the vitreous, compared with RGD (Rabbits; rabbits, 2.5% intravitreal): equal or slightly better than that of RGD
- activity when administered with 0.02% Sodium Edetate (Rabbits; rabbits, 2.5% intravitreal): not altered
- adverse effects from the intravitreal injection (Rabbits; rabbits, 2.5% intravitreal): no adverse effects or adverse safety effects
- size of neovascularization lesions ([2]; Group B, single intravitreal 0.125 μg/1 μL on post-natal day 12, measured day 17): somewhat smaller
- size of neovascularization lesions ([2]; Group D, single intravitreal 12.5 μg/1 μL on post-natal day 12, measured day 17, statistically significant vs control): greatly decreased
- size of neovascularization lesions ([2]; Group F, single intravitreal 25.0 μg/1 μL on post-natal day 12, measured day 17, statistically significant vs control): greatly decreased
- size of neovascularization lesions ([2]; Group H, single intravitreal 50.0 μg/1 μL on post-natal day 12, measured day 17, statistically significant vs control): greatly decreased
- Ocular toxicity: RPE toxicity (New Zealand Rabbits [3]): No RPE toxicity
- Ocular toxicity: cataract formation (New Zealand Rabbits [3]): No cataract
- Ocular toxicity: exudates (New Zealand Rabbits [3]): No exudates
- Ocular toxicity: inflammation (New Zealand Rabbits [3]): No inflammation
- Ocular toxicity: retinal hemorrhage (New Zealand Rabbits [3]): No retinal
- Ocular toxicity: retinal tears, breaks or detachments (New Zealand Rabbits [3]): No retinal tears,
- Ocular toxicity: retinal vascular compromise (New Zealand Rabbits [3]): No retinal vascular
- Total PVD (New Zealand Rabbits [3]; 3 eyes): 0% Total PVD
- Vitreous liquefaction (New Zealand Rabbits [3]; 3 eyes): No liquefaction
- size of CNV lesions (CNV mouse model; single intravitreal 1.0 μg/1 μL): somewhat smaller
- reduction in CNV compared to vehicle treated eyes (CNV mouse model; single intravitreal 25 μg/1 μL, statistically significant): 43%
- size of CNV lesions (CNV mouse model; single intravitreal 50 μg/1 μL): somewhat smaller
